# Measured values reported in US4863713A, “Method and system for administering therapeutic and diagnostic agents” (priority 1986, dated 1989).
# Biological target: avidin (Gallus gallus, UniProt P02701)
# Assay: Binding of biotinylated chelate to avidin
# From the text: To illustrate a derivatization reaction used in preparing a epitopic compound, the above bifunctional chelates can be coupled to a biotin moiety, to produce of epitopic biotin chelate capable of specific, high-affinity binding to avidin. In one coupling method, a bifunctional chelate having a free-end amine is reacted with an N-hydroxysuccinamide (NHS) ester of biotin, to link the biotin to the chelate amine through an amide linkage. The chelate amine may be formed from BABE-EDTA, for example, by amination in concentrated aqueous ammonium, and the NHS biotin ester is commercially available. […] Other active agents can be biotinylated or derivatized with carbohydrate or haptenic molecules in a similar manner.
# Chain of avidin (P02701 25-152): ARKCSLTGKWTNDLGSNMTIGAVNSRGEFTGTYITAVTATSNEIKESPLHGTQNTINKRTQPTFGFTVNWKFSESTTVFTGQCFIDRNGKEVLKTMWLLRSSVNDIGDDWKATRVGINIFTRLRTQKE
smiles,measurement,value
O=C(O)CN(CC(=O)O)CC(Cc1ccc(NC(=O)CNC(=O)CCCC[C@@H]2SC[C@@H]3NC(=O)N[C@@H]32)cc1)N(CC(=O)O)CC(=O)O (stereo partly shown) [biotinylated glycineamidobenzyl EDTA],binding to avidin (in words),bind with high affinity to avidin
